Laboratory results from ChEMBL document CHEMBL2384925, “Structure-activity relationships for 4-anilinoquinoline derivatives as inhibitors of the DNA methyltransferase enzyme DNMT1” (2013).

Experiments:
[1] = biological target: DNA (cytosine-5)-methyltransferase 1 (Homo sapiens) (UniProt P26358); assay: Inhibition of DNMT1 in human HCT116 cells at 5 uM after 24 hrs by Western blot analysis relative to control; type: cell-based; settings: HCT-116
HCT-116 = assay: Cytotoxicity against human HCT116 cells assessed as viability; type: functional; settings: read-out: TD50 (the source's name)

Chain of DNA (cytosine-5)-methyltransferase 1 (Homo sapiens) (P26358 whole entry): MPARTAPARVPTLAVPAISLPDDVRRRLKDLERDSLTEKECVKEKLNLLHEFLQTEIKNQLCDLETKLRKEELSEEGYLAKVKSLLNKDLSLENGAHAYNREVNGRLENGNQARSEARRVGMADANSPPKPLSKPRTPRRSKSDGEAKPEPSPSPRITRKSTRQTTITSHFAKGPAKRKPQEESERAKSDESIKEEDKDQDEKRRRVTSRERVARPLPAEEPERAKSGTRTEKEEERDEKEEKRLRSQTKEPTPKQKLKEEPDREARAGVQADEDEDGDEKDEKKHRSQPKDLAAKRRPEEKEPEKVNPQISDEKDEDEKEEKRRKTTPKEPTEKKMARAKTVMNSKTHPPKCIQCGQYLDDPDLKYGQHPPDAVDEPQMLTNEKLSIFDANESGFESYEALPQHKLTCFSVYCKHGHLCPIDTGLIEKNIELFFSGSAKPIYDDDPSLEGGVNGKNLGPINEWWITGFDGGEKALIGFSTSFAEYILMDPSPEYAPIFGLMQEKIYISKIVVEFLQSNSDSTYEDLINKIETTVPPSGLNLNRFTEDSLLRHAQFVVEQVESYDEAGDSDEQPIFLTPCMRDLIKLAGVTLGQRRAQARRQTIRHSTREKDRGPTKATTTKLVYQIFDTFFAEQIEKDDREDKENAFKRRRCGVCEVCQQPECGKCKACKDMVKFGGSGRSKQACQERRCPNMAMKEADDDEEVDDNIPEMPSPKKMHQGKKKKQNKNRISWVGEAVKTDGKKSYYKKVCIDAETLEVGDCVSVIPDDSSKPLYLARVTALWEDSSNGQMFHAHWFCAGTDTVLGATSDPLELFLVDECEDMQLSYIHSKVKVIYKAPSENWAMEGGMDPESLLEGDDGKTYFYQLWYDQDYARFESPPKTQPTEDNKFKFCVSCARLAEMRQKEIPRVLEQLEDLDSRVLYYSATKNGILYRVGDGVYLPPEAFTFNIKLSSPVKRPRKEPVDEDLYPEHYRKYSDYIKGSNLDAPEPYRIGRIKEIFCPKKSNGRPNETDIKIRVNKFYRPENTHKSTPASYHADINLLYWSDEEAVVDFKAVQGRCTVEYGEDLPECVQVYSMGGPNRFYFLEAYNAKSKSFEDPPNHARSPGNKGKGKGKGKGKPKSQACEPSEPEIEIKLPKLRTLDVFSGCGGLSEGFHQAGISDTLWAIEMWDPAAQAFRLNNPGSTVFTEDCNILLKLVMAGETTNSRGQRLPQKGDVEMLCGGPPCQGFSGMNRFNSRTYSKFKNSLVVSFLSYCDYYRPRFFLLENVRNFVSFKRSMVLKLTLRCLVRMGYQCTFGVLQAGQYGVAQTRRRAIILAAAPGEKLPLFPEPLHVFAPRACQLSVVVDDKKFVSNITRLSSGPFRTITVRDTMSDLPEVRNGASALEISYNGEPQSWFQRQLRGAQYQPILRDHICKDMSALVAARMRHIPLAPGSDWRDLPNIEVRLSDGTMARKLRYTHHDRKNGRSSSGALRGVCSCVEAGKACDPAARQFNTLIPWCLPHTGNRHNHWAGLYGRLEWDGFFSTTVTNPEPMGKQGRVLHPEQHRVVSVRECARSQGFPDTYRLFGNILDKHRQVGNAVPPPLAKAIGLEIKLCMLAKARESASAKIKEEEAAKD

| Compound | inhibition [1] | CC50 (HCT-116) |
| --- | --- | --- |
| CN(C)c1ccc2nccc(Nc3ccc(NC(=O)c4cccc(Nc5cc[n+](C)cc5)c4)cc3)c2c1 | 75% | 25 µM |
| Cc1cc(Nc2ccc(NC(=O)c3ccc(Nc4ccnc5ccc(N(C)C)cc45)cc3)cc2)nc(N)n1 | 43% | 25 µM |
| C[n+]1ccc(Nc2ccc(NC(=O)c3ccc(Nc4ccnc5ccccc45)cc3)cc2)cc1 | 0% | 25 µM |
| CN(C)c1ccc2nccc(Nc3ccc(C(=O)Nc4cccc(Nc5cc[n+](C)cc5)c4)cc3)c2c1 | 0% | 25 µM |
| C/C(=N\N=C(N)N)c1cccc(C(=O)Nc2ccc(Nc3ccnc4ccc(N(C)C)cc34)cc2)c1 | 40% | 25 µM |
| C/C(=N\N=C(N)N)c1cccc(NC(=O)c2ccc(Nc3ccnc4ccc(N(C)C)cc34)cc2)c1 | 0% | 25 µM |
| C[n+]1ccc(Nc2cccc(C(=O)Nc3ccc(Nc4ccnc5ccc(N)cc45)cc3)c2)cc1 | 80% | 25 µM |
| CN(C)c1ccc2nccc(Nc3ccc(NC(=O)c4ccc(Nc5cc[n+](C)cc5)cc4)cc3)c2c1 | 45% | 50 µM |
| C/C(=N\N=C(N)N)c1ccc(C(=O)Nc2ccc(Nc3ccnc4ccc(N(C)C)cc34)cc2)cc1 | 34% | 25 µM |
| C[n+]1ccc(Nc2cccc(NC(=O)c3ccc(Nc4ccnc5ccc(N)cc45)cc3)c2)cc1 | 2% | 12.5 µM |
| C[n+]1ccc(Nc2cccc(C(=O)Nc3ccc(Nc4ccnc5ccccc45)cc3)c2)cc1 | 80% | 25 µM |
| Cc1cc(Nc2ccc(C(=O)Nc3ccc(Nc4ccnc5ccccc45)cc3)cc2)nc(N)n1 | 75% | 25 µM |
| CN(C)c1ccc2nccc(Nc3ccc(C(=O)Nc4ccc(Nc5cc[n+](C)cc5)cc4)cc3)c2c1 | 16% | 50 µM |
| Cc1cc(Nc2ccc(NC(=O)c3ccc(Nc4ccnc5ccccc45)cc3)cc2)nc(N)n1 | 97% | 25 µM |
| C[n+]1ccc(Nc2ccc(NC(=O)c3ccc(Nc4ccnc5ccc(N)cc45)cc3)cc2)cc1 | 0% | 50 µM |
| C[n+]1ccc(Nc2cccc(NC(=O)c3ccc(Nc4ccnc5ccccc45)cc3)c2)cc1 | 0% | 12.5 µM |
| Cc1cc(Nc2ccc(NC(=O)c3ccc(Nc4ccnc5ccc(Cl)cc45)cc3)cc2)nc(N)n1 | 30% | 25 µM |
| C[n+]1ccc(Nc2ccc(C(=O)Nc3ccc(Nc4ccnc5ccc(N)cc45)cc3)cc2)cc1 | 0% | 50 µM |
| Cc1cc(Nc2ccc(NC(=O)c3ccc(Nc4ccnc5c(F)c(F)c(F)cc45)cc3)cc2)nc(N)n1 | 18% | 25 µM |
| Cc1cc(Nc2cccc(C(=O)Nc3ccc(Nc4ccnc5ccccc45)cc3)c2)nc(N)n1 | 85% | 25 µM |
| C[n+]1ccc(Nc2ccc(C(=O)Nc3ccc(Nc4ccnc5ccccc45)cc3)cc2)cc1 | 0% | 12.5 µM |
| C/C(=N\N=C(N)N)c1ccc(NC(=O)c2ccc(Nc3ccnc4ccc(N(C)C)cc34)cc2)cc1 | 30% | 25 µM |
